# PubChem BioAssay AID2060505 (Molecular Pharmacology Branch, DTP, NCI, 2025)
# System: 633275-114-R-J1-PDC complex spheroids, viability
# Assay: Anticancer human tumor 633275-114-R-J1-PDC patient-derived endometrial adenocarcinoma cell line growth inhibition [GQUAD]
# Conditions: for IC50: curve of first compound; for viability, T/C: stronger effect = lower value
# Procedure, shortened: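 Tumor cells were grown as complex spheroids with HUVEC endothelial cells and mesenchymal stem cells as stroma. G-quadruplex stabilizers were combined with targeted agents over half-log dilutions from near the clinical Cmax, or from 10 microM.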
# [1] = second compound 0.0316 µM, first compound 0.0316 µM
# [2] = second compound 0.0316 µM, first compound 0.316 µM
# [3] = second compound 0.1 µM, first compound 0.0316 µM
# [4] = second compound 0.1 µM, first compound 0.316 µM
# [5] = second compound 0.316 µM, first compound 0.0316 µM
# [6] = second compound 0.316 µM, first compound 0.316 µM
# [7] = second compound 1 µM, first compound 0.0316 µM
# [8] = second compound 1 µM, first compound 0.316 µM
# [9] = second compound 3.16 µM, first compound 0.0316 µM
# [10] = second compound 3.16 µM, first compound 0.316 µM
# [11] = second compound 10 µM, first compound 0.0316 µM
# [12] = second compound 10 µM, first compound 0.316 µM
# [13] = second compound 0.0316 µM, first compound 0.000999 µM
# [14] = second compound 0.0316 µM, first compound 0.00316 µM
# [15] = second compound 0.0316 µM, first compound 0.00999 µM
# [16] = second compound 0.0316 µM, first compound 0.0999 µM
# [17] = second compound 0.1 µM, first compound 0.000999 µM
# [18] = second compound 0.1 µM, first compound 0.00316 µM
# [19] = second compound 0.1 µM, first compound 0.00999 µM
# [20] = second compound 0.1 µM, first compound 0.0999 µM
# [21] = second compound 0.316 µM, first compound 0.000999 µM
# [22] = second compound 0.316 µM, first compound 0.00316 µM
# [23] = second compound 0.316 µM, first compound 0.00999 µM
# [24] = second compound 0.316 µM, first compound 0.0999 µM
# [25] = second compound 1 µM, first compound 0.000999 µM
# [26] = second compound 1 µM, first compound 0.00316 µM
# [27] = second compound 1 µM, first compound 0.00999 µM
# [28] = second compound 1 µM, first compound 0.0999 µM
# [29] = second compound 3.16 µM, first compound 0.000999 µM
# [30] = second compound 3.16 µM, first compound 0.00316 µM
# [31] = second compound 3.16 µM, first compound 0.00999 µM
# [32] = second compound 3.16 µM, first compound 0.0999 µM
# [33] = second compound 10 µM, first compound 0.000999 µM
# [34] = second compound 10 µM, first compound 0.00316 µM
# [35] = second compound 10 µM, first compound 0.00999 µM
# [36] = second compound 10 µM, first compound 0.0999 µM
# 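Note: spheroids exposed to the agents for seven days.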
# 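Throughout, for viability, T/C: percent of DMSO vehicle control viability which is 100%.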
smiles,measurement,setting,value
C=CC(=O)N1CCN(c2nc(=O)n(-c3c(C)ccnc3C(C)C)c3nc(-c4c(O)cccc4F)c(F)cc23)C(C)C1 (stereo unspecified) + CN(C)c1ccc(Nc2c3ccc(NC(=O)CCN4CCCC4)cc3nc3cc(NC(=O)CCN4CCCC4)ccc23)cc1,IC50,second compound 0.0316 µM,> 10000 nM
same,IC50,second compound 0.1 µM,> 10000 nM
same,IC50,second compound 0.316 µM,> 10000 nM
same,IC50,second compound 1 µM,> 10000 nM
same,IC50,second compound 3.16 µM,> 10000 nM
same,IC50,second compound 10 µM,< 31.6 nM
same,"viability, T/C",[1],109%
same,"viability, T/C","second compound 0.0316 µM, first compound 0.1 µM",88%
same,"viability, T/C",[2],94.9%
same,"viability, T/C","second compound 0.0316 µM, first compound 1 µM",92.5%
same,"viability, T/C","second compound 0.0316 µM, first compound 3.16 µM",106%
same,"viability, T/C","second compound 0.0316 µM, first compound 10 µM",81.8%
same,"viability, T/C",[3],98.1%
same,"viability, T/C","second compound 0.1 µM, first compound 0.1 µM",92%
same,"viability, T/C",[4],97.7%
same,"viability, T/C","second compound 0.1 µM, first compound 1 µM",92.6%
same,"viability, T/C","second compound 0.1 µM, first compound 3.16 µM",97.2%
same,"viability, T/C","second compound 0.1 µM, first compound 10 µM",76%
same,"viability, T/C",[5],92.8%
same,"viability, T/C","second compound 0.316 µM, first compound 0.1 µM",95.4%
same,"viability, T/C",[6],110%
same,"viability, T/C","second compound 0.316 µM, first compound 1 µM",110%
same,"viability, T/C","second compound 0.316 µM, first compound 3.16 µM",98.9%
same,"viability, T/C","second compound 0.316 µM, first compound 10 µM",76%
same,"viability, T/C",[7],95.5%
same,"viability, T/C","second compound 1 µM, first compound 0.1 µM",88.6%
same,"viability, T/C",[8],100%
same,"viability, T/C","second compound 1 µM, first compound 1 µM",97.5%
same,"viability, T/C","second compound 1 µM, first compound 3.16 µM",104%
same,"viability, T/C","second compound 1 µM, first compound 10 µM",65.2%
same,"viability, T/C",[9],84.2%
same,"viability, T/C","second compound 3.16 µM, first compound 0.1 µM",85.1%
same,"viability, T/C",[10],92.1%
same,"viability, T/C","second compound 3.16 µM, first compound 1 µM",84.5%
same,"viability, T/C","second compound 3.16 µM, first compound 3.16 µM",78.1%
same,"viability, T/C","second compound 3.16 µM, first compound 10 µM",51.3%
same,"viability, T/C",[11],34.3%
same,"viability, T/C","second compound 10 µM, first compound 0.1 µM",34.3%
same,"viability, T/C",[12],35.2%
same,"viability, T/C","second compound 10 µM, first compound 1 µM",41%
same,"viability, T/C","second compound 10 µM, first compound 3.16 µM",37.3%
same,"viability, T/C","second compound 10 µM, first compound 10 µM",15.4%
CC[C@@]1(O)C(=O)OCc2c1cc1n(c2=O)Cc2cc3c(CN(C)C)c(O)ccc3nc2-1 + CN(C)c1ccc(Nc2c3ccc(NC(=O)CCN4CCCC4)cc3nc3cc(NC(=O)CCN4CCCC4)ccc23)cc1,IC50,second compound 0.0316 µM,71.5 nM
same,IC50,second compound 0.1 µM,73 nM
same,IC50,second compound 0.316 µM,81.2 nM
same,IC50,second compound 1 µM,58.2 nM
same,IC50,second compound 3.16 µM,48.3 nM
same,IC50,second compound 10 µM,< 0.999 nM
same,"viability, T/C",[13],96.1%
same,"viability, T/C",[14],105%
same,"viability, T/C",[15],98.3%
same,"viability, T/C",[1],75.2%
same,"viability, T/C",[16],39.7%
same,"viability, T/C",[2],35.9%
same,"viability, T/C",[17],93.4%
same,"viability, T/C",[18],101%
same,"viability, T/C",[19],99%
same,"viability, T/C",[3],74.1%
same,"viability, T/C",[20],42%
same,"viability, T/C",[4],36%
same,"viability, T/C",[21],101%
same,"viability, T/C",[22],104%
same,"viability, T/C",[23],85.5%
same,"viability, T/C",[5],72.9%
same,"viability, T/C",[24],42.6%
same,"viability, T/C",[6],36.3%
same,"viability, T/C",[25],98%
same,"viability, T/C",[26],88.6%
same,"viability, T/C",[27],91.2%
same,"viability, T/C",[7],64.8%
same,"viability, T/C",[28],36.7%
same,"viability, T/C",[8],35%
same,"viability, T/C",[29],82.3%
same,"viability, T/C",[30],82%
same,"viability, T/C",[31],80.7%
same,"viability, T/C",[9],54%
same,"viability, T/C",[32],40.6%
same,"viability, T/C",[10],27%
same,"viability, T/C",[33],35.2%
same,"viability, T/C",[34],41.3%
same,"viability, T/C",[35],28.8%
same,"viability, T/C",[11],26.5%
same,"viability, T/C",[36],15.3%
same,"viability, T/C",[12],13.7%
CCc1c2c(nc3ccc(O)cc13)-c1cc3c(c(=O)n1C2)COC(=O)[C@]3(O)CC + CN(C)c1ccc(Nc2c3ccc(NC(=O)CCN4CCCC4)cc3nc3cc(NC(=O)CCN4CCCC4)ccc23)cc1,IC50,second compound 0.0316 µM,2.92 nM
same,IC50,second compound 0.1 µM,2.72 nM
same,IC50,second compound 0.316 µM,3.31 nM
same,IC50,second compound 1 µM,2.76 nM
same,IC50,second compound 3.16 µM,2.01 nM
same,IC50,second compound 10 µM,< 0.999 nM
same,"viability, T/C",[13],82.3%
same,"viability, T/C",[14],46.1%
same,"viability, T/C",[15],34.6%
same,"viability, T/C",[1],35.3%
same,"viability, T/C",[16],26.1%
same,"viability, T/C",[2],25.2%
same,"viability, T/C",[17],77.6%
same,"viability, T/C",[18],44.2%
same,"viability, T/C",[19],36.1%
same,"viability, T/C",[3],32%
same,"viability, T/C",[20],30.2%
same,"viability, T/C",[4],25.6%
same,"viability, T/C",[21],73%
same,"viability, T/C",[22],48.2%
same,"viability, T/C",[23],38.1%
same,"viability, T/C",[5],35.3%
same,"viability, T/C",[24],29.4%
same,"viability, T/C",[6],23.9%
same,"viability, T/C",[25],68.4%
same,"viability, T/C",[26],43.1%
same,"viability, T/C",[27],40.3%
same,"viability, T/C",[7],29.3%
same,"viability, T/C",[28],23.9%
same,"viability, T/C",[8],21.6%
same,"viability, T/C",[29],60.8%
same,"viability, T/C",[30],41.8%
same,"viability, T/C",[31],34.9%
same,"viability, T/C",[9],28.1%
same,"viability, T/C",[32],23.5%
same,"viability, T/C",[10],22.6%
same,"viability, T/C",[33],31%
same,"viability, T/C",[34],16%
same,"viability, T/C",[35],15.7%
same,"viability, T/C",[11],13.9%
same,"viability, T/C",[36],15.6%
same,"viability, T/C",[12],11.5%
